Experimental data as given in publication PMC6732734 (Heliyon, 2019).

Test: In vivo gentamicin release / pharmacokinetics after tail vein injection
Set-up: species or system Wistar rats
Conditions: rat

Q: For `CNC(C)C1CCC(N)C(OC2C(N)CC(N)C(OC3OCC(C)(O)C(NC)C3O)C2O)O1` (stereo not drawn) [Pure drug, Gentamicin], which AUC(0-inf) (male, Wistar, plasma, iv, 2 mg) is on record?
A: 203 µg·h/mL

Q: What about the Cmax (male, Wistar, plasma, iv, 2 mg) of the same compound?
A: 8400 ng/mL

Q: And the Tmax (male, Wistar, plasma, iv, 2 mg)?
A: 1 h

Q: What about the Vd (male, Wistar, plasma, iv, 2 mg) of the same compound?
A: 0.1 L/kg

Q: What about the clearance (male, Wistar, plasma, iv, 2 mg) of the same compound?
A: 5 mL/h/kg

Q: And the “time up to which gentamicin was detectable in the plasma” value (intravenous)?
A: up to 6 h
